Data taken from patent US10479780B2, “Aminopyrazole derivatives” (Chugai Seiyaku Kabushiki Kaisha, priority 2015, dated 2019).
pIC50: −log10 of the molar value.

Legend:
Assay type in all cases: biochemical
[1] = biological target: T1, human Lck enzyme (Homo sapiens, UniProt P06239); assay: Lck enzyme inhibitory activity (time-resolved fluorometry, biotinylated peptide phosphorylation); settings: read-out: LCK_IC50
T1 construct: purchased Carna Biosciences, Inc. 08-170
How it was run: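 Readout pairs a europium cryptate-labelled anti-phosphotyrosine antibody with XL665-streptavidin, measured by time-resolved fluorescence. IC50 derived from percent inhibition against untreated controls.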

[2] = biological target: T2, human Src enzyme (Homo sapiens, UniProt P12931); assay: Src enzyme inhibitory activity (time-resolved fluorometry, biotinylated peptide phosphorylation); settings: read-out: SRC_IC50
T2 construct: purchased Carna Biosciences, Inc. 08-173
How it was run: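 Compounds were tested for blocking tyrosine phosphorylation of a biotinylated peptide substrate by recombinant human Src. Phosphorylated product was quantified by time-resolved fluorometry using europium cryptate and XL665 conjugates, and IC50 was calculated against the compound-free control.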

[3] = biological target: T3, human Yes1 enzyme (Homo sapiens, UniProt P07947); assay: Yes1 enzyme inhibitory activity (time-resolved fluorometry, biotinylated peptide phosphorylation); settings: read-out: YES_IC50
T3 construct: made in house
How it was run: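 Inhibition was expressed against a compound-free control to give IC50, using TR-FRET read-out (Eu-cryptate anti-pTyr antibody, streptavidin-XL665).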

T1 sequence (P06239 whole entry): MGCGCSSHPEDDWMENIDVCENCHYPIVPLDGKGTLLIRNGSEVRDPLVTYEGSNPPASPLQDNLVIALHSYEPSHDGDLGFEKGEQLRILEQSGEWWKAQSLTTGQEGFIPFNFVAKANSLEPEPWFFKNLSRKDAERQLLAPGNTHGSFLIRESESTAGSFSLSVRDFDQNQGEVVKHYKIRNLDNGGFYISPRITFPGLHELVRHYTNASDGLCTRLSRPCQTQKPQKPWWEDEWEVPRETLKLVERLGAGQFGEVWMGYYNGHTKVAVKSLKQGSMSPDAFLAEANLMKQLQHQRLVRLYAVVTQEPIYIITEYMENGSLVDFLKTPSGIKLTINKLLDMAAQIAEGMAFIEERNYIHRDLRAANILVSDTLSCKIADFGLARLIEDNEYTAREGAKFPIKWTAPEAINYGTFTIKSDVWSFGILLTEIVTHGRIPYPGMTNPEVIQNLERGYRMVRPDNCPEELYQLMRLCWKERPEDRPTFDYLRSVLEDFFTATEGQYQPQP
T3 sequence (P07947 whole entry): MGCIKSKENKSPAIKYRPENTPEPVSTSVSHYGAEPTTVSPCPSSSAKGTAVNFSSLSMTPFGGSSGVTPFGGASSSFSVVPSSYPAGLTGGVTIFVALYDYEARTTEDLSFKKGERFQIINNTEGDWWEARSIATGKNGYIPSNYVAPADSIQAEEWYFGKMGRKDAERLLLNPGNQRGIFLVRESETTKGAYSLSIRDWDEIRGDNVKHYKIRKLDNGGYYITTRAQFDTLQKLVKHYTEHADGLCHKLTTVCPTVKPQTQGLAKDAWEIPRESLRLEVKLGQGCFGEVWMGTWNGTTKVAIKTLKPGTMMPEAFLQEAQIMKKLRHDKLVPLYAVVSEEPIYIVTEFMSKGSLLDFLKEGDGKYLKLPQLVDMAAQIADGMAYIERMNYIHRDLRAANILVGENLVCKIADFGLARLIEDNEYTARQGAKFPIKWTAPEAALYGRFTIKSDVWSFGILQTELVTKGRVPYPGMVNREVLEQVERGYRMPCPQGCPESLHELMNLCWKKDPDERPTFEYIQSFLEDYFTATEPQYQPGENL
T2 sequence (P12931 whole entry): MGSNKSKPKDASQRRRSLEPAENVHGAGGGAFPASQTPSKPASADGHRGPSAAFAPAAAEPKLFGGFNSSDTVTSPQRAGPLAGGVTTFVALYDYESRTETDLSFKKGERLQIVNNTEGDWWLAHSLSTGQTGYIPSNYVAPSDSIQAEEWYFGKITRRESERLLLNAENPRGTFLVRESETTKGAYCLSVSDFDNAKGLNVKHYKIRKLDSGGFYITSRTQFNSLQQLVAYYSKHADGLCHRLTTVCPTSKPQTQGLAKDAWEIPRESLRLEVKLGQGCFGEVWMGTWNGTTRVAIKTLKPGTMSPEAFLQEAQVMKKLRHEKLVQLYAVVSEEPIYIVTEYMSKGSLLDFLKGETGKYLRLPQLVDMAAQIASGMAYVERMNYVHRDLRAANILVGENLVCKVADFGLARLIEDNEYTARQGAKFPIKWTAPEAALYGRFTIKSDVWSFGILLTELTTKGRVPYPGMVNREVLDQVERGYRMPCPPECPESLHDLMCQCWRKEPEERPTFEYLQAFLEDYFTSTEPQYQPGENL

| SMILES | pIC50 [1] | pIC50 [2] | pIC50 [3] |
| --- | --- | --- | --- |
| Cc1cc2cc(C(=O)c3cnn(-c4ccc(Oc5ncccc5Cl)cc4Cl)c3N)[nH]c2cc1NS(=O)(=O)CCCF [Example 5-1-063, N-[2-[5-amino-1-[2-chloro-4-(3-chloropyridin-2-yl)oxyphenyl]pyrazole-4-carbonyl]-5-methyl-1H-indol-6-yl]-3-fluoropropane-1-sulfonamide] | 7.54 | 7.08 | 8.55 |
| Cc1cc2cc(C(=O)c3cnn(-c4ccc(Oc5ncccc5Cl)cc4Cl)c3N)[nH]c2cc1NS(=O)(=O)N1CCOCC1 [Example 5-1-065, N-[2-[5-amino-1-[2-chloro-4-(3-chloropyridin-2-yl)oxyphenyl]pyrazole-4-carbonyl]-5-methyl-1H-indol-6-yl]morpholine-4-sulfonamide] | 6.92 | 6.46 | 8.11 |
| Cc1cc(Oc2c(F)cccc2F)ncc1-n1ncc(C(=O)c2cc3cc(F)c(N(C(C)C)S(C)(=O)=O)cc3[nH]2)c1N [Example 5-1-067, N-[2-[5-amino-1-[6-(2,6-difluorophenoxy)-4-methylpyridin-3-yl]pyrazole-4-carbonyl]-5-fluoro-1H-indol-6-yl]-N-propan-2-ylmethanesulfonamide] | 8.25 | 7.21 | 8.64 |
| Cc1cc(Oc2ccccc2F)ccc1-n1ncc(C(=O)c2cc3cc(OCC(F)F)c(C4CCN(C(=O)OC(C)(C)C)CC4)cc3[nH]2)c1N [Example 5-1-068, tert-Butyl 4-[2-[5-amino-1-[4-(2-fluorophenoxy)-2-methylphenyl]pyrazole-4-carbonyl]-5-(2,2-difluoroethoxy)-1H-indol-6-yl] piperidine-1-carboxylate] | 8.08 | 7.82 | 8.25 |
| Cc1cc(Oc2c(F)cccc2F)ncc1-n1ncc(C(=O)c2cc3cc(OCC(F)F)c(C4CCN(C(=O)OC(C)(C)C)CC4)cc3[nH]2)c1N [Example 5-1-069, tert-Butyl 4-[2-[5-amino-1-[6-(2,6-difluorophenoxy)-4-methylpyridin-3-yl]pyrazole-4-carbonyl]-5-(2,2-difluoroethoxy)-1H-indol-6-yl]piperidine-1-carboxylate] | 7.70 | 7.48 | 7.74 |
| Cc1cc(Oc2ccccc2F)ccc1-n1ncc(C(=O)c2cc3cc(OCC(F)F)c(Br)cc3[nH]2)c1N [Example 5-1-070, [5-amino-1-[4-(2-fluorophenoxy)-2-methylphenyl]pyrazol-4-yl]-[6-bromo-5-(2,2-difluoroethoxy)-1H-indol-2-yl]methanone] | 7.92 | 7.89 | 9.07 |
| CCOc1cc2cc(C(=O)c3cnn(-c4ccc(Oc5ccccc5F)cc4C)c3N)[nH]c2cc1C1CCN(S(=O)(=O)C2CC2)CC1 [Example 5-1-071, [5-amino-1-[4-(2-fluorophenoxy)-2-methylphenyl]pyrazol-4-yl]-[6-(1-cyclopropylsulfonylpiperidin-4-yl)-5-ethoxy-1H-indol-2-yl]methanone] | 7.21 | 7.17 | 7.55 |
| Cc1cc(Oc2c(F)cccc2F)ncc1-n1ncc(C(=O)c2cc3cc(OC(F)F)c(-n4c(C)cc(=O)[nH]c4=O)cc3[nH]2)c1N [Example 5-1-072, 1-[2-[5-amino-1-[6-(2,6-difluorophenoxy)-4-methylpyridin-3-yl]pyrazole-4-carbonyl]-5-(difluoromethoxy)-1H-indol-6-yl]-6-methylpyrimidine-2,4-dione] | 8.09 | 7.44 | 8.11 |
| Cc1cc(Oc2c(F)cccc2F)ncc1-n1ncc(C(=O)c2cc3cc(OC(F)F)c(N)cc3[nH]2)c1N [Example 5-1-074, [6-amino-5-(difluoromethoxy)-1H-indol-2-yl]-[5-amino-1-[6-(2,6-difluorophenoxy)-4-methylpyridin-3-yl]pyrazol-4-yl]methanone] | 8.49 | 7.60 | 8.80 |
| Cc1cc(Oc2c(F)cccc2F)ncc1-n1ncc(C(=O)c2cc3cc(OC(F)F)c(N4CCN(S(C)(=O)=O)CC4)cc3[nH]2)c1N [Example 5-1-075, [5-amino-1-[6-(2,6-difluorophenoxy)-4-methylpyridin-3-yl]pyrazol-4-yl]-[5-(difluoromethoxy)-6-(4-methylsulfonylpiperazin-1-yl)-1H-indol-2-yl]methanone] | 7.74 | 7.14 | 8.55 |
| Cc1cc(Oc2c(F)cccc2F)ncc1-n1ncc(C(=O)c2cc3cc(OC(F)F)c(NC4CN(S(C)(=O)=O)C4)cc3[nH]2)c1N [Example 5-1-079, [5-amino-1-[6-(2,6-difluorophenoxy)-4-methylpyridin-3-yl]pyrazol-4-yl]-[5-(difluoromethoxy)-6-[(1-methylsulfonylazetidin-3-yl)amino]-1H-indol-2-yl]methanone] | 8.42 | 7.70 | 9.00 |
| Cc1cc(Oc2c(F)cccc2F)ncc1-n1ncc(C(=O)c2cc3cc(OCC(F)F)c(Br)cc3[nH]2)c1N [Example 5-1-080, [5-amino-1-[6-(2,6-difluorophenoxy)-4-methylpyridin-3-yl]pyrazol-4-yl]-[6-bromo-5-(2,2-difluoroethoxy)-1H-indol-2-yl]methanone] | 7.85 | 7.43 | 8.48 |
| Cc1cc2cc(C(=O)c3cnn(-c4cnc(Oc5cc(F)ccc5F)cc4C)c3N)[nH]c2cc1NS(C)(=O)=O [Example 5-1-081, N-[2-[5-amino-1-[6-(2,5-difluorophenoxy)-4-methylpyridin-3-yl]pyrazole-4-carbonyl]-5-methyl-1H-indol-6-yl]methanesulfonamide] | 8.19 | 6.96 | 8.62 |

Other lines, results leading:

| pIC50 [1] | pIC50 [2] | pIC50 [3] | SMILES |
| --- | --- | --- | --- |
| 6.59 | 6.47 | 7.62 | Cc1cc2cc(C(=O)c3cnn(-c4cnc(Oc5ccc(F)cc5)cc4C)c3N)[nH]c2cc1NS(=O)(=O)N1CCOCC1 [Example 5-1-064, N-[2-[5-amino-1-[6-(4-fluorophenoxy)-4-methylpyridin-3-yl]pyrazole-4-carbonyl]-5-methyl-1H-indol-6-yl]morpholine-4-sulfonamide] |
| 7.11 | 6.68 | 8.57 | Cc1cc2cc(C(=O)c3cnn(-c4c(C)cc(Oc5cccc(F)c5F)cc4F)c3N)[nH]c2cc1NS(=O)(=O)N1CCOCC1 [Example 5-1-066, N-[2-[5-amino-1-[4-(2,3-difluorophenoxy)-2-fluoro-6-methylphenyl]pyrazole-4-carbonyl]-5-methyl-1H-indol-6-yl]morpholine-4-sulfonamide] |
| 7.49 | 7.38 | 8.01 | CCOc1cc2cc(C(=O)c3cnn(-c4ccc(Oc5ccccc5F)cc4C)c3N)[nH]c2cc1C1CCN(S(C)(=O)=O)CC1 [Example 5-1-073, [5-amino-1-[4-(2-fluorophenoxy)-2-methylphenyl]pyrazol-4-yl]-[5-ethoxy-6-(1-methylsulfonylpiperidin-4-yl)-1H-indol-2-yl] methanone] |
| 7.80 | 6.92 | 8.55 | Cc1cc(Oc2ccccc2F)cc(F)c1-n1ncc(C(=O)c2cc3cc(OC(F)F)c(NS(C)(=O)=O)cc3[nH]2)c1N [Example 5-1-076, N-[2-[5-amino-1-[2-fluoro-4-(2-fluorophenoxy)-6-methylphenyl]pyrazole-4-carbonyl]-5-(difluoromethoxy)-1H-indol-6-yl] methanesulfonamine] |
| 8.15 | 7.38 | 9.00 | Cc1cc2cc(C(=O)c3cnn(-c4ccc(Oc5ccccc5F)cc4C)c3N)[nH]c2cc1N1CCC(N2CCOCC2)CC1 [Example 5-1-077, [5-amino-1-[4-(2-fluorophenoxy)-2-methylphenyl]pyrazol-4-yl]-[5-methyl-6-(4-morpholin-4-ylpiperidin-1-yl)-1H-indol-2-yl] methanone] |
| 8.62 | 8.00 | 9.55 | Cc1cc2cc(C(=O)c3cnn(-c4cnc(Oc5ccccc5F)cc4C)c3N)[nH]c2cc1N1CCC(N2CCOCC2)CC1 [Example 5-1-078, [5-amino-1-[6-(2-fluorophenoxy)-4-methylpyridin-3-yl]pyrazol-4-yl]-[5-methyl-6-(4-morpholin-4-ylpiperidin-1-yl)-1H-indol-2-yl]methanone] |
| 7.96 | 7.59 | 8.72 | Cc1cc(Oc2ccccc2F)ccc1-n1ncc(C(=O)c2cc3cc(OC(F)F)c(Br)cc3[nH]2)c1N [Example 5-1-082, [5-amino-1-[4-(2-fluorophenoxy)-2-methylphenyl]pyrazol-4-yl]-[6-bromo-5-(difluoromethoxy)-1H-indol-2-yl]methanone] |
| 8.15 | 8.14 | 9.14 | Cc1cc(Oc2ccccc2F)ccc1-n1ncc(C(=O)c2cc3cc(OC(F)F)c(N)cc3[nH]2)c1N [Example 5-1-083, [6-amino-5-(difluoromethoxy)-1H-indol-2-yl]-[5-amino-1-[4-(2-fluorophenoxy)-2-methylphenyl]pyrazol-4-yl]methanone] |
| 8.35 | 7.47 | 8.39 | Cc1cc2cc(C(=O)c3cnn(-c4c(C)cc(Oc5ccccc5F)cc4F)c3N)[nH]c2cc1N1CCOCC1 [Example 5-1-084, [5-amino-1-[2-fluoro-4-(2-fluorophenoxy)-6-methylphenyl]pyrazol-4-yl]-(5-methyl-6-morpholin-4-yl-1H-indol-2-yl)methanone] |
| 8.70 | 7.68 | 8.64 | Cc1cc2cc(C(=O)c3cnn(-c4c(C)cc(Oc5ccccc5F)cc4F)c3N)[nH]c2cc1N1CCC(N2CCOCC2)CC1 [Example 5-1-085, [5-amino-1-[2-fluoro-4-(2-fluorophenoxy)-6-methylphenyl]pyrazol-4-yl]-[5-methyl-6-(4-morpholin-4-ylpiperidin-1-yl)-1H-indol-2-yl] methanone] |
